According to US10906878B2, “Kinase inhibitors for the treatment of disease” (Dana-Farber Cancer Institute, Inc., priority 2013, dated 2021):
Each block holds one molecule with its values, some of them ahead of it.

Columns and labels:
TXK = TXK (Homo sapiens (Human), UniProt P42681); assay: Kinase inhibition TXK; type: biochemical
[1] = biological target: EGFR Del/T790M Ba/F3 cells (Homo sapiens, UniProt P00533, T790M, cells depend on it, form not given); assay: Ba/F3 cell growth inhibition (MTS assay), EGFR Del/T790M; type: cell-based
Text: (§1) The specific cDNAs encoding the oncogenic alterations (EGFR: Del 19, L858R, L718Q, L844V, Del/T790M, L858R/T790M, Del 19/L718Q, Del 19/L844V, Del 19/T790M/L718Q and L858R/T790M/L718Q; FGFR: TEL-FGFR1, TEL-FGFR2, TEL-FGFR1 V561M, TEL-FGFR2 V561M; ALK: EML4-ALK; ROS1: CD74-ROS1) were cloned into the pDNA-Dual (BD Biosciences) vector using standard molecular biology techniques. Mutations were introduced using site-directed mutagenesis (Agilent) with mutant specific primers according to the manufacturer's instructions. All constructs were confirmed by DNA sequencing. The constructs were introduced into Ba/F3 cells using retroviral infection. Polyclonal cell lines were established by puromycin selection and subsequently cultured in the absence of interleukin-3 (IL-3). Uninfected Ba/F3 cells or cell lines expressing green fluorescent protein (GFP) were used as controls.
(§2) Growth and inhibition of growth was assessed by MTS assay. This assay, a colorimetric method for determining the number of viable cells, is based on the bioreduction of 3-(4,5-dimethylthiazol-2-yl)-5-(3-carboxymethoxyphenyl)-2-(4-sulfophenyl)-2H-tetrazolium (MTS) by cells to a formazan product that is soluble in cell culture medium, can be detected spectrophotometrically and was performed according to the manufacturer's recommended conditions. Ba/F3 cells were exposed to treatment for 72 hours and the number of cells used per experiment determined empirically to assure linear growth kinetics over that time period. All experimental points were set up in six to twelve wells and all experiments were repeated at least three times. […] The curves were fitted using a non-linear regression model with a sigmoidal dose response.

TEC = TEC (Homo sapiens (Human), UniProt P42680); assay: Kinase inhibition TEC; type: biochemical
BLK = BLK (Homo sapiens (Human), UniProt P51451); assay: Kinase inhibition BLK; type: biochemical
ITK = ITK (Homo sapiens (Human), UniProt Q08881); assay: Kinase inhibition ITK; type: biochemical
EGFR Del Ba/F3 cells = EGFR Del Ba/F3 cells (Homo sapiens, UniProt P00533, cells depend on it, form not given); assay: Ba/F3 cell growth inhibition (MTS assay), EGFR Del; type: cell-based
Text: as §1, §2

[2] = Microsome Stability Mouse; type: in vitro ADME; conditions: mouse microsomes
EGFR L858R Ba/F3 cells = EGFR L858R Ba/F3 cells (Homo sapiens (Human), UniProt P00533, L858R); assay: Ba/F3 cell growth inhibition (MTS assay), EGFR L858R; type: cell-based
Text: as §1, §2

[3] = biological target: EGFR Wild type vIII Ba/F3 cells (Homo sapiens (Human), UniProt P00533, DELINS30-297G); assay: Ba/F3 cell growth inhibition (MTS assay), EGFR Wild type vIII; type: cell-based; conditions: Assay 1, read-out: EGFR Ba/F3 cells IC 50 (nM) Assay 1 Wild type vIII
[4] = biological target: EGFR L858R/T790M Ba/F3 cells (Homo sapiens (Human), UniProt P00533, L858R/T790M); assay: Ba/F3 cell growth inhibition (MTS assay), EGFR L858R/T790M; type: cell-based
Text: as §1, §2

[5] = biological target: EGFR L858R/T790M/L718Q Ba/F3 cells (Homo sapiens (Human), UniProt P00533, L718Q/L858R/T790M); assay: Ba/F3 cell growth inhibition (MTS assay), EGFR L858R/T790M/L718Q; type: cell-based; conditions: Assay 1; T/L/L718Q; read-out: EGFR Ba/F3 cells IC 50 (nM) Assay 1 T/L/L718Q
Text: as §1, §2

BTK = BTK (Homo sapiens (Human), UniProt Q06187); assay: BTK kinase assay (LanthaScreen Kinase assay); type: biochemical
Description: BTK kinase assay was conducted using LanthaScreen® Kinase assay.
1. Optimization of kinase concentration required to determine ATP Km,app. The assay was first performed at a high concentration of ATP (1 mM) against a dilution series of kinase in order to determine the amount of kinase required to elicit an approximately 80% change between the minimum and maximum TR-FRET emission ratios (the EC80 value).
2. Determination of ATP Km,app. Using the concentration of enzyme determined in step 1, the assay was then performed against a dilution series of ATP in order to determine the amount of ATP required to elicit a 50% change between the minimum and maximum TR-FRET emission ratios (the EC50 value). This concentration of ATP was referred to as the “apparent” Km value for ATP, or the ATP Km,app.
3. Optimization of kinase concentration required for assay at ATP Km,app. Using the ATP Km,app concentration of ATP determined in step 2, the kinase titration was repeated in order to determine the concentration of kinase required to elicit an approximately 80% change between the minimum and maximum TR-FRET emission ratios at the ATP Km,app concentration of ATP (the EC80 value). This was the concentration of kinase that will be used in an assay to determine an IC50 value for a compound of the invention.
Using the ATP and kinase concentrations determined above, the reaction was then performed in the presence of a dilution series of various compounds of the invention, and the amount of compounds required to elicit a 50% change in TR-FRET ratio (the IC50) was determined. The experiments can be performed over two days, with steps one and two being performed on the first day, and step three and the inhibitor IC50 determination(s) being performed on the second day.

Ba/F3 TEL-ABL = Ba/F3 TEL-ABL (Homo sapiens, UniProt P00519); assay: Inhibition of Ba/F3 TEL-ABL cell line; type: cell-based; conditions: read-out: IC50 (μM) Ba/F3 TEL-ABL
Description: as §2

Ba/F3 TEL-JAK3 = Ba/F3 TEL-JAK3 (Homo sapiens, UniProt P52333); assay: Inhibition of Ba/F3 TEL-JAK3 cell line; type: cell-based; conditions: read-out: IC50 (μM) Ba/F3 TEL-JAK3
Description: as §2

Ba/F3 TYK2_E957D = Ba/F3 TYK2_E957D (Homo sapiens (Human), UniProt P29597, E957D); assay: Inhibition of Ba/F3 TYK2_E957D cell line; type: cell-based; conditions: read-out: IC50 (μM) Ba/F3 TYK2_E957D
Description: as §2

Ba/F3 TEL-JAK2 = Ba/F3 TEL-JAK2 (Homo sapiens, UniProt O60674); assay: Inhibition of Ba/F3 TEL-JAK2 cell line; type: cell-based; conditions: read-out: IC50 (μM) Ba/F3 TEL-JAK2
Description: as §2

Ba/F3 TEL-JAK1 = Ba/F3 TEL-JAK1 (Homo sapiens, UniProt P23458); assay: Inhibition of Ba/F3 TEL-JAK1 cell line; type: cell-based; conditions: read-out: IC50 (μM) Ba/F3 TEL-JAK1
Description: as §2

Sequence of Ba/F3 TEL-JAK1 (P23458 whole entry, looked up, change not shown): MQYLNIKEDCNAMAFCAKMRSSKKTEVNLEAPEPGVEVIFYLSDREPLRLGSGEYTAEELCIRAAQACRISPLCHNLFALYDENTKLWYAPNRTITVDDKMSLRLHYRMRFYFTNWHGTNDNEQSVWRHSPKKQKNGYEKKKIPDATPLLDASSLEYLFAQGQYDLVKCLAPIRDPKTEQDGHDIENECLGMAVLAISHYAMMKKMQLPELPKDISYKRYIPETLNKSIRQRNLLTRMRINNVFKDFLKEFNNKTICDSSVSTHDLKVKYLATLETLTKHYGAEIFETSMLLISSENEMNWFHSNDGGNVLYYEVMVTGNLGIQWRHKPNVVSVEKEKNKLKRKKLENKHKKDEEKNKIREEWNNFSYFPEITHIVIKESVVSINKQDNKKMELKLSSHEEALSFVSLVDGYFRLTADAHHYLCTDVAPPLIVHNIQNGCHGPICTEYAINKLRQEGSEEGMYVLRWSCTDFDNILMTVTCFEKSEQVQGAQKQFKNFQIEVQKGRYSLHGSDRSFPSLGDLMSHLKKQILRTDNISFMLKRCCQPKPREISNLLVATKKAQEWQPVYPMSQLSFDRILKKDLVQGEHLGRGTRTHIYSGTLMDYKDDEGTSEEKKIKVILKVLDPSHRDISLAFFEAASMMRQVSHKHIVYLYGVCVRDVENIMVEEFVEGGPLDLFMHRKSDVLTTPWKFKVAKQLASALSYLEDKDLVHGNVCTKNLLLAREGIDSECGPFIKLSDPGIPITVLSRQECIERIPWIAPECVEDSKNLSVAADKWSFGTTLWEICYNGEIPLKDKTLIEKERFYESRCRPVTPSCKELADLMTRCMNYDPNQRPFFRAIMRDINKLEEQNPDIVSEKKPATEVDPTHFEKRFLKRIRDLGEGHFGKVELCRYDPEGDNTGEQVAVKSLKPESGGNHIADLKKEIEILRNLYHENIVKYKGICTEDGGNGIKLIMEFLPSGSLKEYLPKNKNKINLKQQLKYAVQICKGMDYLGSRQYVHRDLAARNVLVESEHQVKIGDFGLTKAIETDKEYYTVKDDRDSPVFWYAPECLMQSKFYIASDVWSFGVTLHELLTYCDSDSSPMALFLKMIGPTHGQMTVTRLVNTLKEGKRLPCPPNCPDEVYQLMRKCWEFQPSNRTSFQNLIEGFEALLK
Sequence of Ba/F3 TEL-ABL (P00519 whole entry, looked up, change not shown): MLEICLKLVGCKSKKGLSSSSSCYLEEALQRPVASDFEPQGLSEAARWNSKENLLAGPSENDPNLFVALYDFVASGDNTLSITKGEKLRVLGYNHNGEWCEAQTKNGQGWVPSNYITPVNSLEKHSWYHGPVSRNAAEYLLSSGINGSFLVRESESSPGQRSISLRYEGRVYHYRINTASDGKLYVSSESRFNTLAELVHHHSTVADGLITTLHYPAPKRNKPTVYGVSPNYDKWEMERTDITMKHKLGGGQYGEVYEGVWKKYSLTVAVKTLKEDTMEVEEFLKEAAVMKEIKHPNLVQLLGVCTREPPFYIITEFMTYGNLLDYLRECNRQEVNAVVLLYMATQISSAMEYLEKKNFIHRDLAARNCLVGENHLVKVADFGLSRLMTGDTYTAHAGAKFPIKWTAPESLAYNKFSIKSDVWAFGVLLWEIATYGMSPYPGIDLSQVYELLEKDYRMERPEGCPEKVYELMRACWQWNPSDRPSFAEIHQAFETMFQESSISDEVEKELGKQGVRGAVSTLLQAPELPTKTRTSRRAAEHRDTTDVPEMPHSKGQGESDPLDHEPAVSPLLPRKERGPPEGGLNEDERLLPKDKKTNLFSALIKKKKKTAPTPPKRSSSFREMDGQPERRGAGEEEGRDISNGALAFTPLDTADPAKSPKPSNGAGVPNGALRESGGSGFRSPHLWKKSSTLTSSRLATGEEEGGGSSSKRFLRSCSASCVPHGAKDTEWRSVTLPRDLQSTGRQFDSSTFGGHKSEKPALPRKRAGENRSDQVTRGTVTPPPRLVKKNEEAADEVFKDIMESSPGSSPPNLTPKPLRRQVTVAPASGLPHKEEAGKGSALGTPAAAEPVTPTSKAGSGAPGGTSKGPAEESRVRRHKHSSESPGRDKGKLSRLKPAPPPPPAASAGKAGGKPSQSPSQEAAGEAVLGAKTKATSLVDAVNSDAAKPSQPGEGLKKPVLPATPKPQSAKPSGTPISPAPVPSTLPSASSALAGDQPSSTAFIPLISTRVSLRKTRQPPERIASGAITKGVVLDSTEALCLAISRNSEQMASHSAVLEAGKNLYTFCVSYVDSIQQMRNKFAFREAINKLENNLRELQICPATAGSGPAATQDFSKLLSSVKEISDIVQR
Sequence of Ba/F3 TEL-JAK2 (O60674 whole entry, looked up, change not shown): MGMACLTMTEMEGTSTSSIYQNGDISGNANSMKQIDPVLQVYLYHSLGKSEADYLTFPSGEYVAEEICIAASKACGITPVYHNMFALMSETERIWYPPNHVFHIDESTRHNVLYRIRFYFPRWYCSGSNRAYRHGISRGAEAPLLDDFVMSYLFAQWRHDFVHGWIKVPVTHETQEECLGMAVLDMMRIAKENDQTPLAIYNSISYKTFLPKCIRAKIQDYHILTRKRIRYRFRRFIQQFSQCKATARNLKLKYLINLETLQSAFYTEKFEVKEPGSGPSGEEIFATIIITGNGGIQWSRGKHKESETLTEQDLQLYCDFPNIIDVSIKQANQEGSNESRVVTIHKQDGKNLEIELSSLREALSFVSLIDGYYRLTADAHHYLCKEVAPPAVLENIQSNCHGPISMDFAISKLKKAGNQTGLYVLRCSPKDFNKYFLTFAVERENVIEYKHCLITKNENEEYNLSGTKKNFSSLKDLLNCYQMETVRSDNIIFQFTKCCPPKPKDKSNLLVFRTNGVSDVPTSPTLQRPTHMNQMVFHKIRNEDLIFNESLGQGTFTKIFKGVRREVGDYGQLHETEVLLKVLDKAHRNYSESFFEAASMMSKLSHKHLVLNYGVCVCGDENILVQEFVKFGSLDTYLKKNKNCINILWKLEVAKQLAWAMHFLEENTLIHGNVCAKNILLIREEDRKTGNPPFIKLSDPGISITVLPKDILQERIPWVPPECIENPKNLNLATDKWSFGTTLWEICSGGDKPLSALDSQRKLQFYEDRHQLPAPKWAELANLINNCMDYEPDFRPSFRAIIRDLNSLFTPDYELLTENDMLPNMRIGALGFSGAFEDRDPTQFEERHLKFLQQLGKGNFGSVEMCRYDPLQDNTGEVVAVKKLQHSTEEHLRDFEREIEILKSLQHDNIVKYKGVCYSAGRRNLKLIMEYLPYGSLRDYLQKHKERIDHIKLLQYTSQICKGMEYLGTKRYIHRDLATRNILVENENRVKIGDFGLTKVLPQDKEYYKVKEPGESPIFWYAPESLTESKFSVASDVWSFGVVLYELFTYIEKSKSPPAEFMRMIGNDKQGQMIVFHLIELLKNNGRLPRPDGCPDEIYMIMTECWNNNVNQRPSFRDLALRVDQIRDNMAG
Sequence of Ba/F3 TYK2_E957D (P29597 whole entry E957D): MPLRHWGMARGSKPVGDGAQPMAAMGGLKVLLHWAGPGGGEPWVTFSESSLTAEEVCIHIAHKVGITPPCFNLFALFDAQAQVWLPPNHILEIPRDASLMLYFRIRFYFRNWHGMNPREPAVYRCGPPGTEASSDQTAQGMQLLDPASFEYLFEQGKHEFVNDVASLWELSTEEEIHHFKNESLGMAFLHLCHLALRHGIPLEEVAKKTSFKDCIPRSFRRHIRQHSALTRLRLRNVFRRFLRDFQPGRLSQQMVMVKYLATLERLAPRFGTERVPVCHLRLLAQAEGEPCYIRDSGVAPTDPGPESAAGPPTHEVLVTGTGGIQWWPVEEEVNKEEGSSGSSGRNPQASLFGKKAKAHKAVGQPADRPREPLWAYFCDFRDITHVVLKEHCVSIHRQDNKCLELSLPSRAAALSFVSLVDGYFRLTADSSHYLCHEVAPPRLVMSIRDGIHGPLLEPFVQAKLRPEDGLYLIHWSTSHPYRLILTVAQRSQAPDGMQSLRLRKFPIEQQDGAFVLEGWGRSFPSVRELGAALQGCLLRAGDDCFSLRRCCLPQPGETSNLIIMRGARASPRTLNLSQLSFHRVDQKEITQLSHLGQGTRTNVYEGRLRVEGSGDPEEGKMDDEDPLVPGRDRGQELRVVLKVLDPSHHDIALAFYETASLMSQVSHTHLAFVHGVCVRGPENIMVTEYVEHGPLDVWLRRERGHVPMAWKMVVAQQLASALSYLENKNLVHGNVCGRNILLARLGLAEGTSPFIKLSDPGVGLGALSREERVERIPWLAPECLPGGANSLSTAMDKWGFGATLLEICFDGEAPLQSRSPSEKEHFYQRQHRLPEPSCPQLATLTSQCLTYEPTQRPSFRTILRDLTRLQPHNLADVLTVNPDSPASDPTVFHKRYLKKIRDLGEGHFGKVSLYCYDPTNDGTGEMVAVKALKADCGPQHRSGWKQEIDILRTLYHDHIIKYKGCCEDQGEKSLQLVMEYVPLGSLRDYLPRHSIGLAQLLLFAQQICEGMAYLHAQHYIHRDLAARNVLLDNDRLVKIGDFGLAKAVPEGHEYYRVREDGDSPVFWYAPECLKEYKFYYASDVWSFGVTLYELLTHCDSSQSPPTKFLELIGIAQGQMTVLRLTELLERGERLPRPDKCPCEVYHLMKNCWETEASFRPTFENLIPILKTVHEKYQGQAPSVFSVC
Sequence of BLK (P51451 whole entry): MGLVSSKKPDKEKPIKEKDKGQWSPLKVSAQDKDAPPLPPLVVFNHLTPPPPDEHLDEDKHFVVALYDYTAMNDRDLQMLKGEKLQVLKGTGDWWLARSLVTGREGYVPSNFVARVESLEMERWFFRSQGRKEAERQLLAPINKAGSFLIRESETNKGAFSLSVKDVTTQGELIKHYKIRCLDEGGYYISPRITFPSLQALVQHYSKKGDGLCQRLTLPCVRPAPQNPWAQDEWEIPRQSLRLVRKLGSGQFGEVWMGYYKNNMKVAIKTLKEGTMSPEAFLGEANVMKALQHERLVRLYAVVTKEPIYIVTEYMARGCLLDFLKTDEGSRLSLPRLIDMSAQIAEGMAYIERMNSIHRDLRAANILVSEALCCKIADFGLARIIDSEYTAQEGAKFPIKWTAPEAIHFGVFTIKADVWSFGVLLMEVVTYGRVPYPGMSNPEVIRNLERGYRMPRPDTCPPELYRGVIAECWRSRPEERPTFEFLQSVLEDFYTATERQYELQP

Structure (SMILES): C=CC(=O)Nc1cccc(N(C(=O)OCc2ccccc2)c2ccnc(Nc3ccc(N4CCN(C)CC4)cc3OC)n2)c1 [Compound 4A, Benzyl (3-acrylamidophenyl)(2-((2-methoxy-4-(4-methylpiperazin-1-yl)phenyl)amino)pyrimidin-4-yl)carbamate]
Kinase inhibition (% control, 1000 nM compound) TXK (TXK): 27 % control
IC50 ([1]; Assay 1, Del/T790M, read-out: EGFR Ba/F3 cells IC 50 (nM) Assay 1 Del/T790M): 17.3 nM
Kinase inhibition (% control, 1000 nM compound) TEC (TEC): 83 % control
Kinase inhibition (% control, 1000 nM compound) BLK (BLK): 20 % control
Kinase inhibition (% control, 1000 nM compound) ITK (ITK): 100 % control
IC50 (EGFR Del Ba/F3 cells; Assay 1, Del, read-out: EGFR Ba/F3 cells IC 50 (nM) Assay 1 Del): 14.2 nM
Microsome Stability Mouse min [2]: 29 min
IC50 (EGFR L858R Ba/F3 cells; Assay 1, L858R, read-out: EGFR Ba/F3 cells IC 50 (nM) Assay 1 L858R): 0.5 nM
IC50 [3]: 2.92 nM
IC50 ([4]; Assay 1, L858R/T790M, read-out: EGFR Ba/F3 cells IC 50 (nM) Assay 1 L858R/T790M): 7.6 nM
IC50 [5]: 293 nM

IC50 (BTK): 2240 nM
Structure (SMILES): C=CC(=O)Nc1cccc(N(C(=O)OCc2ccccc2)c2ccnc3[nH]ccc23)c1 [Compound 103A]

Structure (SMILES): C=CC(=O)Nc1cccc(N(C(=O)Nc2ccccc2)c2cc(Nc3ccc(N4CCN(C)CC4)cc3)ncn2)c1 [Compound 25A]
IC50 (BTK): 31.2 nM
EGFR activity (% Control, 100 nM drug) Del/T790M ([1]; 100 nM drug, Table G): 53 % Control
EGFR activity (% Control, 100 nM drug) Del (EGFR Del Ba/F3 cells; 100 nM drug, Table G): 14 % Control
EGFR activity (% Control, 100 nM drug) L858R (EGFR L858R Ba/F3 cells; 100 nM drug, Table G): 1 % Control
EGFR activity (% Control, 100 nM drug) L858R/T790M ([4]; 100 nM drug, Table G): 24 % Control

Structure (SMILES): C=CC(=O)Nc1cccc(N(C(=O)OCc2ccccc2)c2ccnc(Nc3cnn(C4CCOCC4)c3)n2)c1 [Compound 84A]
IC50 (Ba/F3 TEL-ABL): 11.3 µM
IC50 (Ba/F3 TEL-JAK3): 0.139 µM
IC50 (Ba/F3 TYK2_E957D): 4.17 µM
IC50 (Ba/F3 TEL-JAK2): 18.1 µM
IC50 (Ba/F3 TEL-JAK1): 7.41 µM

Structure (SMILES): C=CC(=O)Nc1cccc(N(C(=O)OCc2ccccc2)c2ccnc(Nc3cnn(CCN4CCOCC4)c3)n2)c1 [Compound 85A]
IC50 (Ba/F3 TEL-ABL): 16.1 µM
IC50 (Ba/F3 TEL-JAK3): 0.189 µM
IC50 (Ba/F3 TYK2_E957D): 4.37 µM
IC50 (Ba/F3 TEL-JAK2): 18.3 µM
IC50 (Ba/F3 TEL-JAK1): 8.86 µM
